Type in all cases: biochemical
One assay addresses T1, BTK-WT (Homo sapiens, UniProt Q06187).
T1 construct: purified from insect cells as a full-length construct containing an N-terminal 6X-His tag; His6 (N); made in house; host or cells: insect cells (baculovirus Sf21 in Method B)
Put plainly: Btk in vitro inhibitory activity (one of Method A TR-FRET, Method B electrophoretic mobility shift, Method C radiometric filter binding). The following applies: read-out: BTK-WT (IC50).

A further assay addresses T2, JAK3 (Homo sapiens, UniProt P52333).
T2 sequence (P52333 1-1124): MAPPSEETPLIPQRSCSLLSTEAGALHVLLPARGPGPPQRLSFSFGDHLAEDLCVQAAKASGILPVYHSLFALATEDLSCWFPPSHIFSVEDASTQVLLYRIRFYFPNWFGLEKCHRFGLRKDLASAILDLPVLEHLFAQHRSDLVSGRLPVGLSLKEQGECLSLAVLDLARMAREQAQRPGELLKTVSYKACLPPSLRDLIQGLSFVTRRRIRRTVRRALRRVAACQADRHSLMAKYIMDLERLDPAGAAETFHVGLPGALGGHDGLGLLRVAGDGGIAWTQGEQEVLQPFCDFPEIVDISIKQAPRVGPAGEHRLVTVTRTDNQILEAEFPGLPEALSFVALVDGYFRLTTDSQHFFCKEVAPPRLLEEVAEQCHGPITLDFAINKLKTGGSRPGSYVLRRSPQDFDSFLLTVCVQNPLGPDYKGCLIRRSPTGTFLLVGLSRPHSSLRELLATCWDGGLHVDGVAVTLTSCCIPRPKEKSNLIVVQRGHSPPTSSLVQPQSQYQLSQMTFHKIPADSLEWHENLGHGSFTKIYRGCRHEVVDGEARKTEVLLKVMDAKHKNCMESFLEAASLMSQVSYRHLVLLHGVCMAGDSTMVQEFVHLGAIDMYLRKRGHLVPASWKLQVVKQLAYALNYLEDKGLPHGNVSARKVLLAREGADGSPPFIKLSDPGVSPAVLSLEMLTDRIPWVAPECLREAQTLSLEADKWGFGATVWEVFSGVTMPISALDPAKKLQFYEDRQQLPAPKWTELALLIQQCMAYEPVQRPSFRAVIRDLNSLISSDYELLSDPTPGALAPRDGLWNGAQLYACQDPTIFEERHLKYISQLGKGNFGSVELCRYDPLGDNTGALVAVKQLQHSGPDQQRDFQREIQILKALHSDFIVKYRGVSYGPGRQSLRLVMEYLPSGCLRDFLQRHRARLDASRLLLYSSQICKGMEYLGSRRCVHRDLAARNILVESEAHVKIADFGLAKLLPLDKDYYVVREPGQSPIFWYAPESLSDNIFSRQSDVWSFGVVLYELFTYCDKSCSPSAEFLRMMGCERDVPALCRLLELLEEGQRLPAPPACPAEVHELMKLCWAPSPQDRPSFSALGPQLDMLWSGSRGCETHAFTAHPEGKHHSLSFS
Put plainly: Inhibition of a panel of kinases, in vitro HotSpot kinase assay: JAK3. Conditions: 1 μM ATP, read-out: JAK3 (IC50).

The target of a further assay is LCK (Homo sapiens, UniProt P06239). As to the kind of experiment: Inhibition of a panel of kinases, in vitro HotSpot kinase assay: LCK. The following applies: 1 μM ATP, read-out: LCK (IC50).

Structures can show the parent of a compound that is named as a salt. Where two headings read alike, the source gives them in different places.

20 compounds from patent publication US20210070748A1, “INHIBITORS OF BRUTONS TYROSINE KINASE” (Pharmacyclics LLC, priority 2015, published 2021) can be followed below.

Sequence of LCK (P06239 whole entry): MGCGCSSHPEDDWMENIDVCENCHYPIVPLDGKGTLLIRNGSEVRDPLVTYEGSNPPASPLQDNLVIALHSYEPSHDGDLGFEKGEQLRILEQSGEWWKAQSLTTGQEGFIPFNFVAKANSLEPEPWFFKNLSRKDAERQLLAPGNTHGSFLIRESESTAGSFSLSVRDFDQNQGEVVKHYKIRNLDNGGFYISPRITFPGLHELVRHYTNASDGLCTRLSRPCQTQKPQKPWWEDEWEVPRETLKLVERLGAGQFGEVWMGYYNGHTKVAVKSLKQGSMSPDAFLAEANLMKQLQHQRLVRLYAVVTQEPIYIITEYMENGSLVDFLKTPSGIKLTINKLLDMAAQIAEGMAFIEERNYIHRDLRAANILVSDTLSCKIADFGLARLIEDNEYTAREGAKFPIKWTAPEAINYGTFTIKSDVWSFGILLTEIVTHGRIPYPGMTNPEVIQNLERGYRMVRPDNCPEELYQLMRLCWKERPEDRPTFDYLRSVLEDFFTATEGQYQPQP
T1 sequence (Q06187 whole entry): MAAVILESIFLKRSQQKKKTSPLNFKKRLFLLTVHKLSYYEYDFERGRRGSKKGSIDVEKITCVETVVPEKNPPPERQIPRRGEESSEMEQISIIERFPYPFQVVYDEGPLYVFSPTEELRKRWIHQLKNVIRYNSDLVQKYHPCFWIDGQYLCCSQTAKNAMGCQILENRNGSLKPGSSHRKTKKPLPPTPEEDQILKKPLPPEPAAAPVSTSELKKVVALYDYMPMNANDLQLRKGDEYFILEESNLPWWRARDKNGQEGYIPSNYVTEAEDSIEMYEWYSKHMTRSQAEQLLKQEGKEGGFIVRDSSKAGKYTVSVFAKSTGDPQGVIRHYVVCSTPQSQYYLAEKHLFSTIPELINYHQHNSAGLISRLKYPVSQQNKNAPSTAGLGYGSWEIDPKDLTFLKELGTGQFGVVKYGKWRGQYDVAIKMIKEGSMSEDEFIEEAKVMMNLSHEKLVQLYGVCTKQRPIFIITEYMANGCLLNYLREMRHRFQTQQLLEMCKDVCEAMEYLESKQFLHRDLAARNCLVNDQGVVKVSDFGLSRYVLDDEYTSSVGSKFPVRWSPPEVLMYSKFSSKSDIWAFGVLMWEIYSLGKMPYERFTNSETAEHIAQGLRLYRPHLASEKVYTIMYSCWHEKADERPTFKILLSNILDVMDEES

`Cc1cc(Nc2nc(N3CCC[C@@H](NC(=O)c4ccc(N)cc4)C3)cnc2C(N)=O)sn1` [Example A-25, 5-[(3R)-3-(4-aminobenzamido)piperidin-1-yl]-3-[(3-methyl-1,2-thiazol-5-yl)amino]pyrazine-2-carboxamide]: the IC50 on BTK-WT (Table 10, Formula A-I) was no more than 100 nM; on JAK3 (Table 10, Formula A-I) it was 100 to 1000 nM; at LCK (Table 10, Formula A-I) it was 100 to 1000 nM.

Take `Cc1cc(Nc2nc(N[C@@H]3CCCNC3)cnc2C(N)=O)sn1` [Example C-1, 3-[(3-methyl-1,2-thiazol-5-yl)amino]-5-{[(3R)-piperidin-3-yl]amino}pyrazine-2-carboxamide]: the half-inhibitory concentration (IC50) at BTK-WT (Table 12, Formula C-I) was no more than 100 nM; at JAK3 (Table 12, Formula C-I) it was less than 100 nM; at LCK (Table 12, Formula C-I), less than 100 nM.

For the compound `C=CC(=O)N[C@@H]1CCCN(c2cnc(C(N)=O)c(Nc3ccc(C4CCN(C5CCCC5)CC4)cc3)n2)[C@@H]1C` [Example A-85, 5-((2R,3R)-3-acrylamido-2-methylpiperidin-1-yl)-3-(4-(1-cyclopentylpiperidin-4-yl)phenylamino)pyrazine-2-carboxamide], the IC50 at BTK-WT (Table 10, Formula A-I) was no more than 100 nM; on JAK3 (Table 10, Formula A-I), less than 100 nM; on LCK (Table 10, Formula A-I), less than 100 nM.

On to `Cc1cc(Nc2nc(N3CCC[C@@H](NC(=O)Nc4cccnc4)C3)cnc2C(N)=O)sn1` [Example A-11], for which the 50% inhibitory concentration (IC50) is no more than 100 nM at BTK-WT (Table 10, Formula A-I); 1000 to 10000 nM at JAK3 (Table 10, Formula A-I); 100 to 1000 nM on LCK (Table 10, Formula A-I).

In the case of `Cc1cc(Nc2nc(N(C)[C@H]3CCCN(C(=O)N(C)C)C3)cnc2C(N)=O)sn1` [Example C-8, 5-([(3S)-1-(dimethylcarbamoyl)piperidin-3-yl](methyl)amino)-3-[(3-methyl-1,2-thiazol-5-yl)amino]pyrazine-2-carboxamide], the IC50 fell in the range of 100 to 1000 nM at BTK-WT (Table 12, Formula C-I); 1000 to 10000 nM on JAK3 (Table 12, Formula C-I); 1000 to 10000 nM on LCK (Table 12, Formula C-I).

With `Cc1cc(Nc2nc(N3CCC[C@@H](NC(=O)c4ccc(F)cc4F)C3)cnc2C(N)=O)sn1` [Example A-36, 5-[(3R)-3-(2,4-difluorobenzamido)piperidin-1-yl]-3-[(3-methyl-1,2-thiazol-5-yl)amino]pyrazine-2-carboxamide], the half-inhibitory concentration (IC50) at BTK-WT (Table 10, Formula A-I) was no more than 100 nM; at JAK3 (Table 10, Formula A-I) it was greater than 10000 nM; on LCK (Table 10, Formula A-I), greater than 10000 nM.

In the case of `Cc1cc(Nc2nc(N[C@@H]3CCCN(C(=O)N(C)C)C3)cnc2C(N)=O)sn1` [Example C-5, 5-([(3R)-1-(dimethylcarbamoyl)piperidin-3-yl]amino)-3-[(3-methyl-1,2-thiazol-5-yl)amino]pyrazine-2-carboxamide hydrochloride], the concentration for half-maximal inhibition (IC50) lay in the range of 100 to 1000 nM at BTK-WT (Table 12, Formula C-I); 100 to 1000 nM at JAK3 (Table 12, Formula C-I); 1000 to 10000 nM on LCK (Table 12, Formula C-I).

As for `Cc1cc(Nc2cc(N3CCC[C@@H](NC(=O)c4ccc(N(C)C)cc4)C3)cnc2C(N)=O)sn1` [Example A-62, 5-[(3R)-3-[4-(dimethylamino)benzamido]piperidin-1-yl]-3-[(3-methyl-1,2-thiazol-5-yl)amino]pyridine-2-carboxamide], the IC50 on BTK-WT (Table 10, Formula A-I) was no more than 100 nM; at JAK3 (Table 10, Formula A-I), greater than 10000 nM; on LCK (Table 10, Formula A-I) it was greater than 10000 nM.

In the case of `Cc1cc(Nc2cc(N3CCC[C@@H](NC(=O)N(C)C)C3)cnc2C(N)=O)sn1` [Example A-64, 5-[(3R)-3-[(dimethylcarbamoyl)amino]piperidin-1-yl]-3-[(3-methyl-1,2-thiazol-5-yl)amino]pyridine-2-carboxamide], the IC50 at BTK-WT (Table 10, Formula A-I) was 100 to 1000 nM; on JAK3 (Table 10, Formula A-I), 1000 to 10000 nM; on LCK (Table 10, Formula A-I), greater than 10000 nM.

Take `Cc1cc(Nc2nc(N3CCC[C@@H](NC(=O)c4ccc(N(C)C)cc4)C3)cnc2C(N)=O)sn1` [Example A-21, 5-[(3R)-3-[4-(dimethylamino)benzamido]piperidin-1-yl]-3-[(3-methyl-1,2-thiazol-5-yl)amino]pyrazine-2-carboxamide]: the IC50 is no more than 100 nM on BTK-WT (Table 10, Formula A-I); 100 to 1000 nM on JAK3 (Table 10, Formula A-I); greater than 10000 nM on LCK (Table 10, Formula A-I).

With `CN(C)C(=O)N[C@@H]1CCCN(c2cnc(C(N)=O)c(Nc3ccc4ncccc4c3)n2)C1` [Example A-47, 5-[(3R)-3-[(dimethylcarbamoyl)amino]piperidin-1-yl]-3-[(quinolin-6-yl)amino]pyrazine-2-carboxamide], the IC50 was no more than 100 nM at BTK-WT (Table 10, Formula A-I); 1000 to 10000 nM on JAK3 (Table 10, Formula A-I); greater than 10000 nM at LCK (Table 10, Formula A-I).

Take `CC1(c2ccc(Nc3nc(N4CCC[C@@H](NC(=O)c5ccccc5)C4)cnc3C(N)=O)cc2)CCN(C2CC2)CC1` [Example A-48, 5-[(3R)-3-benzamidopiperidin-1-yl]-3-{[4-(1-cyclopropyl-4-methylpiperidin-4-yl)phenyl]amino}pyrazine-2-carboxamide]: the IC50 on BTK-WT (Table 10, Formula A-I) was no more than 100 nM; on JAK3 (Table 10, Formula A-I), less than 100 nM; on LCK (Table 10, Formula A-I) it was less than 100 nM.

`Cc1cc(Nc2nc(N3CCC[C@@H](NC(=O)c4ccccc4F)C3)cnc2C(N)=O)sn1` [Example A-23, 5-[(3R)-3-(2-fluorobenzamido)piperidin-1-yl]-3-[(3-methyl-1,2-thiazol-5-yl)amino]pyrazine-2-carboxamide]: the IC50 is no more than 100 nM on BTK-WT (Table 10, Formula A-I); 100 to 1000 nM on JAK3 (Table 10, Formula A-I); 100 to 1000 nM on LCK (Table 10, Formula A-I).

In the case of `C=CC(=O)N1CC[C@@H](Nc2nnc(C(N)=O)c(Nc3cccc(C(=O)Nc4ccc(C(C)C)c(C)c4)c3)n2)C1` [Example C-30, (R)-3-(1-acryloylpyrrolidin-3-ylamino)-5-(3-(4-isopropyl-3-methylphenyl-carbamoyl)phenyl-amino)-1,2,4-triazine-6-carboxamide], the IC50 on BTK-WT (Table 12, Formula C-I) was no more than 100 nM; on JAK3 (Table 12, Formula C-I) it was 100 to 1000 nM; at LCK (Table 12, Formula C-I), greater than 10000 nM.

For the compound `Cc1cc(Nc2nc(N[C@H]3CCCN(C(=O)c4ccc(N(C)C)cc4)C3)cnc2C(N)=O)sn1` [Example C-4, 5-{[(3S)-1-[4-(dimethylamino)benzoyl]piperidin-3-yl]amino}-3-[(3-methyl-1,2-thiazol-5-yl)amino]pyrazine-2-carboxamide], the IC50 on BTK-WT (Table 12, Formula C-I) is no more than 100 nM; on JAK3 (Table 12, Formula C-I), greater than 10000 nM; at LCK (Table 12, Formula C-I), greater than 10000 nM.

In the case of `Cc1cc(Nc2nc(N3CCC[C@@H](NC(=O)c4ccc(F)cc4)C3)cnc2C(N)=O)sn1` [Example A-20, 5-[(3R)-3-(4-fluorobenzamido)piperidin-1-yl]-3-[(3-methyl-1,2-thiazol-5-yl)amino]pyrazine-2-carboxamide], the IC50 on BTK-WT (Table 10, Formula A-I) was no more than 100 nM; at JAK3 (Table 10, Formula A-I), greater than 10000 nM; at LCK (Table 10, Formula A-I) it was 100 to 1000 nM.

As for `CS(=O)(=O)c1ccc(Nc2nc(N3CCC[C@@H](N4CCN(c5cccc(Cl)c5)C4=O)C3)cnc2C(N)=O)cc1` [Example A-53, 5-[(3R)-3-[3-(3-chlorophenyl)-2-oxoimidazolidin-1-yl]piperidin-1-yl]-3-[(4-methanesulfonylphenyl)amino]pyrazine-2-carboxamide], the IC50 at BTK-WT (Table 10, Formula A-I) is no more than 100 nM; on JAK3 (Table 10, Formula A-I) it was 1000 to 10000 nM; at LCK (Table 10, Formula A-I) it was less than 100 nM.

`CN(C)c1ccc(C(=O)N[C@@H]2CCCN(c3cnc(C(N)=O)c(Nc4ccc(C5(C)CCN(C6CC6)CC5)cc4)n3)C2)cc1` [Example A-49, 3-{[4-(1-cyclopropyl-4-methylpiperidin-4-yl)phenyl]amino}-5-[(3R)-3-[4-(dimethylamino)benzamido]piperidin-1-yl]pyrazine-2-carboxamide]: the IC50 was no more than 100 nM on BTK-WT (Table 10, Formula A-I); 100 to 1000 nM on JAK3 (Table 10, Formula A-I); less than 100 nM at LCK (Table 10, Formula A-I).

Regarding `CN(C(=O)N[C@@H]1CCCN(c2cnc(C(N)=O)c(Nc3ccc(C4CCN(C5CCCC5)CC4)cc3)n2)C1)c1ccccc1` [Example A-6, 3-{[4-(1-cyclopentylpiperidin-4-yl)phenyl]amino}-5-[(3R)-3-{[methyl(phenyl)carbamoyl]amino}piperidin-1-yl]pyrazine-2-carboxamide], the IC50 at BTK-WT (Table 10, Formula A-I) is no more than 100 nM; on JAK3 (Table 10, Formula A-I) it was 100 to 1000 nM; on LCK (Table 10, Formula A-I), 100 to 1000 nM.

Turning to `Cc1cccc(NC(=O)N[C@@H]2CCCN(c3cnc(C(N)=O)c(Nc4ccc(C5CCN(C6CCCC6)CC5)cc4)n3)C2)c1` [Example A-4, 3-{[4-(1-cyclopentylpiperidin-4-yl)phenyl]amino}-5-[(3R)-3-{[(3-methylphenyl)carbamoyl]amino}piperidin-1-yl]pyrazine-2-carboxamide hydrochloride], the IC50 on BTK-WT (Table 10, Formula A-I) is no more than 100 nM; on JAK3 (Table 10, Formula A-I) it was 100 to 1000 nM; at LCK (Table 10, Formula A-I), less than 100 nM.
